How the values were obtained:
Type in all cases: biochemical
cathepsin B = target: T1, cathepsin B (Homo sapiens, UniProt P07858); assay: Cathepsin B enzyme inhibition in vitro (kinetic fluorescence assay); conditions: Ki(cathepsin B)/Ki(calpain) ratio
T1 construct: cathepsin B—isolated from human liver; purchased Calbiochem 219362; host or cells: human liver (tissue isolate)
Procedure, shortened: (§1)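 Kinetic fluorescence (ex 390/em 460 nm), RT. Calpain-I: 20 nM erythrocyte-derived, 100 μM Suc-Leu-Tyr-AMC, imidazole/CaCl2, pH 7.3. Cathepsins, pH 6.0 MES/EDTA/cysteine: B 0.25 nM liver, 100 μM Z-Phe-Arg-AMC; L 1 nM liver, 2 μM Z-Phe-Arg-AMC; S 0.5 nM recombinant, 20 μM Z-Val-Val-Arg-AMC. Cheng-Prusoff Ki, mean of 2–4 curves.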

cathepsin S = target: T2, cathepsin S (Homo sapiens, UniProt P25774); assay: Cathepsin S enzyme inhibition in vitro (kinetic fluorescence assay); conditions: Ki(cathepsin S)/Ki(calpain) ratio
T2 construct: purchased Calbiochem 219343; host or cells: E. coli
Procedure, shortened: as §1

cathepsin K = target: T3, cathepsin K (Homo sapiens, UniProt P43235); assay: Cathepsin K enzyme inhibition in vitro (kinetic fluorescence assay); conditions: Ki(cathepsin K)/Ki(calpain) ratio
T3 construct: purchased Calbiochem 342001; host or cells: E. coli
T3 sequence (P43235 115-329): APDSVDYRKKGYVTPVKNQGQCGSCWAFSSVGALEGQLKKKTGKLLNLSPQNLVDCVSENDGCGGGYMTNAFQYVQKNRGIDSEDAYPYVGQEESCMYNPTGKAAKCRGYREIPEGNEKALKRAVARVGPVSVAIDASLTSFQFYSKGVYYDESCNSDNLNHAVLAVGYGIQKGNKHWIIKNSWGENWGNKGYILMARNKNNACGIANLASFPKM

cathepsin L = target: T4, cathepsin L (Homo sapiens, UniProt P07711); assay: Cathepsin L enzyme inhibition in vitro (kinetic fluorescence assay); conditions: Ki(cathepsin L)/Ki(calpain) ratio
T4 construct: cathepsin L—isolated from human liver; purchased Calbiochem 219402; host or cells: human liver (tissue isolate)
Procedure, shortened: as §1

T4 sequence (P07711 114-333): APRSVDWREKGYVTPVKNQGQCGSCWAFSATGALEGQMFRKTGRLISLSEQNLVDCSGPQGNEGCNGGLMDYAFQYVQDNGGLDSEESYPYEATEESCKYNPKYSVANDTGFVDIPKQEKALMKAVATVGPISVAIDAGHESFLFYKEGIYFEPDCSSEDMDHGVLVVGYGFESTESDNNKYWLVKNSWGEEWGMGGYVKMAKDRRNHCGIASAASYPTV
T2 sequence (P25774 115-331): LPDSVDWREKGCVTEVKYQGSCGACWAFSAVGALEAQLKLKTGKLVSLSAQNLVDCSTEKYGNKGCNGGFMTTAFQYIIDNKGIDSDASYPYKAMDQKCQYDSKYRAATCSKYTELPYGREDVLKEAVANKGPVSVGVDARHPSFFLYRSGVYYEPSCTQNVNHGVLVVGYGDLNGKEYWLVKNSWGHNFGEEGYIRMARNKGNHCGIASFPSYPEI

| Structure (SMILES) | Sel cat. B (cathepsin B) | Sel cat. S (cathepsin S) | Sel cat. K (cathepsin K) | Sel cat. L (cathepsin L) |
| --- | --- | --- | --- | --- |
| COc1ccc(CC(NC(=O)c2cccnc2-n2ccc(-c3cccc(F)c3Cl)n2)C(=O)C(N)=O)cc1 (stereo not shown) [Example 157, N-(3-Amino-1-{[4-(methyloxy)phenyl]methyl}-2,3-dioxopropyl)-2-[3-(2-chloro-3-fluorophenyl)-1H-pyrazol-1-yl]pyridine-3-carboxamide] | ++ (++ means a Ki(cathepsin B)/Ki(calpain) ratio of ≧30) | ++ (++ means a Ki(cathepsin S)/Ki(calpain) ratio of ≧100) | ++ (++ means a Ki(cathepsin K)/Ki(calpain) ratio of ≧30) | ++ (++ means a Ki(cathepsin L)/Ki(calpain) ratio of ≧50) |
| NC(=O)C(=O)C(Cc1ccccc1)NC(=O)c1cccnc1-n1ccc(-c2ccccc2F)n1 (stereo not shown) [Example 76, N-(3-Amino-1-benzyl-2,3-dioxopropyl)-2-[3-(2-fluorophenyl)-1H-pyrazol-1-yl]nicotinamide] | ++ (++ means a Ki(cathepsin B)/Ki(calpain) ratio of ≧30) | ++ (++ means a Ki(cathepsin S)/Ki(calpain) ratio of ≧100) | + (+ means 10≦Ki(cathepsin K)/Ki(calpain)<30) | ++ (++ means a Ki(cathepsin L)/Ki(calpain) ratio of ≧50) |
| NC(=O)C(=O)C(Cc1ccccc1)NC(=O)c1cccnc1-n1ccc(-c2ccccc2)n1 (stereo not shown) [Example 5, N-(3-Amino-1-benzyl-2,3-dioxopropyl)-2-(3-phenyl-1H-pyrazol-1-yl)nicotinamide] | + (+ means 10≦Ki(cathepsin B)/Ki(calpain)<30) | ++ (++ means a Ki(cathepsin S)/Ki(calpain) ratio of ≧100) | + (+ means 10≦Ki(cathepsin K)/Ki(calpain)<30) | ++ (++ means a Ki(cathepsin L)/Ki(calpain) ratio of ≧50) |
| COc1ccc(CC(NC(=O)c2cccnc2-n2ccc(-c3cccc4ccccc34)n2)C(=O)C(N)=O)cc1 (stereo not shown) [Example 135, N-(3-Amino-1-{[4-(methyloxy)phenyl]methyl}-2,3-dioxopropyl)-2-(3-naphthalen-1-yl-1H-pyrazol-1-yl)pyridine-3-carboxamide] | ++ (++ means a Ki(cathepsin B)/Ki(calpain) ratio of ≧30) | ++ (++ means a Ki(cathepsin S)/Ki(calpain) ratio of ≧100) | ++ (++ means a Ki(cathepsin K)/Ki(calpain) ratio of ≧30) | ++ (++ means a Ki(cathepsin L)/Ki(calpain) ratio of ≧50) |
| COc1ccc(CC(NC(=O)c2cccnc2-n2ccc(-c3ccc(F)cc3OC)n2)C(=O)C(N)=O)cc1 (stereo not shown) [Example 136, N-(3-Amino-1-{[4-(methyloxy)phenyl]methyl}-2,3-dioxopropyl)-2-{3-[4-fluoro-2-(methyloxy)phenyl]-1H-pyrazol-1-yl}pyridine-3-carboxamide] | ++ (++ means a Ki(cathepsin B)/Ki(calpain) ratio of ≧30) | ++ (++ means a Ki(cathepsin S)/Ki(calpain) ratio of ≧100) | ++ (++ means a Ki(cathepsin K)/Ki(calpain) ratio of ≧30) | ++ (++ means a Ki(cathepsin L)/Ki(calpain) ratio of ≧50) |
| NC(=O)C(=O)C(Cc1ccc(F)cc1)NC(=O)c1cccnc1-n1ccc(-c2ccccc2)n1 (stereo not shown) [Example 123, N-{3-Amino-1-[(4-fluorophenyl)methyl]-2,3-dioxopropyl}-2-(3-phenyl-1H-pyrazol-1-yl)pyridine-3-carboxamide] | ++ (++ means a Ki(cathepsin B)/Ki(calpain) ratio of ≧30) | ++ (++ means a Ki(cathepsin S)/Ki(calpain) ratio of ≧100) | ++ (++ means a Ki(cathepsin K)/Ki(calpain) ratio of ≧30) | ++ (++ means a Ki(cathepsin L)/Ki(calpain) ratio of ≧50) |
| COc1ccc(CC(NC(=O)c2cccnc2-n2ccc(-c3ccc(F)cc3F)n2)C(=O)C(N)=O)cc1 (stereo not shown) [Example 97, N-(3-Amino-1-{[4-(methyloxy)phenyl]methyl}-2,3-dioxopropyl)-2-[3-(2,4-difluorophenyl)-1H-pyrazol-1-yl]pyridine-3-carboxamide] | ++ (++ means a Ki(cathepsin B)/Ki(calpain) ratio of ≧30) | ++ (++ means a Ki(cathepsin S)/Ki(calpain) ratio of ≧100) | + (+ means 10≦Ki(cathepsin K)/Ki(calpain)<30) | ++ (++ means a Ki(cathepsin L)/Ki(calpain) ratio of ≧50) |
| NC(=O)C(=O)C(Cc1ccccc1)NC(=O)c1cccnc1-n1ccc(-c2cccs2)n1 (stereo not shown) [Example 55, N-(3-Amino-1-benzyl-2,3-dioxopropyl)-2-[3-(2-thienyl)-1H-pyrazol-1-yl]nicotinamide] | + (+ means 10≦Ki(cathepsin B)/Ki(calpain)<30) | ++ (++ means a Ki(cathepsin S)/Ki(calpain) ratio of ≧100) | + (+ means 10≦Ki(cathepsin K)/Ki(calpain)<30) | ++ (++ means a Ki(cathepsin L)/Ki(calpain) ratio of ≧50) |
| NC(=O)C(=O)[C@H](Cc1ccccc1)NC(=O)c1cccnc1-n1ccc(-c2ccccc2)n1 [Example 107, N-[(1S)-3-Amino-2,3-dioxo-1-(phenylmethyl)propyl]-2-(3-phenyl-1H-pyrazol-1-yl)pyridine-3-carboxamide] | + (+ means 10≦Ki(cathepsin B)/Ki(calpain)<30) | ++ (++ means a Ki(cathepsin S)/Ki(calpain) ratio of ≧100) | + (+ means 10≦Ki(cathepsin K)/Ki(calpain)<30) | ++ (++ means a Ki(cathepsin L)/Ki(calpain) ratio of ≧50) |
| COc1ccc(CC(NC(=O)c2cccnc2-n2ccc(-c3ccc(Cl)cc3Cl)n2)C(=O)C(N)=O)cc1 (stereo not shown) [Example 98, N-(3-Amino-1-{[4-(methyloxy)phenyl]methyl}-2,3-dioxopropyl)-2-[3-(2,4-dichlorophenyl)-1H-pyrazol-1-yl]pyridine-3-carboxamide] | ++ (++ means a Ki(cathepsin B)/Ki(calpain) ratio of ≧30) | ++ (++ means a Ki(cathepsin S)/Ki(calpain) ratio of ≧100) | ++ (++ means a Ki(cathepsin K)/Ki(calpain) ratio of ≧30) | ++ (++ means a Ki(cathepsin L)/Ki(calpain) ratio of ≧50) |
| NC(=O)C(=O)C(Cc1ccc(OC(F)(F)F)cc1)NC(=O)c1cccnc1-n1ccc(-c2ccc(F)cc2)n1 (stereo not shown) [Example 132, N-[3-Amino-2,3-dioxo-1-({4-[(trifluoromethyl)oxy]phenyl}methyl)propyl]-2-[3-(4-fluorophenyl)-1H-pyrazol-1-yl]pyridine-3-carboxamide] | + (+ means 10≦Ki(cathepsin B)/Ki(calpain)<30) | ++ (++ means a Ki(cathepsin S)/Ki(calpain) ratio of ≧100) | ++ (++ means a Ki(cathepsin K)/Ki(calpain) ratio of ≧30) | ++ (++ means a Ki(cathepsin L)/Ki(calpain) ratio of ≧50) |
| NC(=O)C(=O)C(Cc1ccccc1)NC(=O)c1cccnc1-n1ccc(-c2ccccn2)n1 (stereo not shown) [Example 35, N-(3-Amino-1-benzyl-2,3-dioxopropyl)-2-(3-pyridin-2-yl-1H-pyrazol-1-yl)nicotinamide] | + (+ means 10≦Ki(cathepsin B)/Ki(calpain)<30) | ++ (++ means a Ki(cathepsin S)/Ki(calpain) ratio of ≧100) | + (+ means 10≦Ki(cathepsin K)/Ki(calpain)<30) | ++ (++ means a Ki(cathepsin L)/Ki(calpain) ratio of ≧50) |
| NC(=O)C(=O)C(Cc1ccccc1)NC(=O)c1cccnc1-n1ccc(-c2ccc(F)cc2)n1 (stereo not shown) [Example 38, N-(3-Amino-1-benzyl-2,3-dioxopropyl)-2-[3-(4-fluorophenyl)-1H-pyrazol-1-yl]nicotinamide] | + (+ means 10≦Ki(cathepsin B)/Ki(calpain)<30) | ++ (++ means a Ki(cathepsin S)/Ki(calpain) ratio of ≧100) | + (+ means 10≦Ki(cathepsin K)/Ki(calpain)<30) | ++ (++ means a Ki(cathepsin L)/Ki(calpain) ratio of ≧50) |
| NC(=O)C(=O)C(Cc1ccccc1)NC(=O)c1cccnc1-n1ccc(-c2c(Cl)cccc2Cl)n1 (stereo not shown) [Example 95, N-[3-Amino-2,3-dioxo-1-(phenylmethyl)propyl]-2-[3-(2,6-dichlorophenyl)-1H-pyrazol-1-yl]pyridine-3-carboxamide] | ++ (++ means a Ki(cathepsin B)/Ki(calpain) ratio of ≧30) | ++ (++ means a Ki(cathepsin S)/Ki(calpain) ratio of ≧100) | ++ (++ means a Ki(cathepsin K)/Ki(calpain) ratio of ≧30) | ++ (++ means a Ki(cathepsin L)/Ki(calpain) ratio of ≧50) |
| NC(=O)C(=O)C(Cc1ccccc1)NC(=O)c1cccnc1-n1ccc(-c2ccc(F)cc2Cl)n1 (stereo not shown) [Example 71, N-(3-Amino-1-benzyl-2,3-dioxopropyl)-2-[3-(2-chloro-4-fluorophenyl)-1H-pyrazol-1-yl]nicotinamide] | ++ (++ means a Ki(cathepsin B)/Ki(calpain) ratio of ≧30) | ++ (++ means a Ki(cathepsin S)/Ki(calpain) ratio of ≧100) | ++ (++ means a Ki(cathepsin K)/Ki(calpain) ratio of ≧30) | ++ (++ means a Ki(cathepsin L)/Ki(calpain) ratio of ≧50) |
| NC(=O)C(=O)C(Cc1ccccc1)NC(=O)c1cccnc1-n1ccc(-c2c(F)cc(F)cc2F)n1 (stereo not shown) [Example 116, N-[3-Amino-2,3-dioxo-1-(phenylmethyl)propyl]-2-[3-(2,4,6-trifluorophenyl)-1H-pyrazol-1-yl]pyridine-3-carboxamide] | ++ (++ means a Ki(cathepsin B)/Ki(calpain) ratio of ≧30) | ++ (++ means a Ki(cathepsin S)/Ki(calpain) ratio of ≧100) | + (+ means 10≦Ki(cathepsin K)/Ki(calpain)<30) | ++ (++ means a Ki(cathepsin L)/Ki(calpain) ratio of ≧50) |

Reference: patent publication US9139557B2, “Carboxamide compounds and their use as calpain inhibitors” (Abbott GmbH & Co. KG, priority 2006, dated 2015)
